# pIC50: −log10 of the molar value. Where two headings read alike, the source gives them in different places.
# What was measured:
# [1] = system: T1, human 20S proteasome (hCP); assay: Native gel electrophoresis of purified hCP (assembly); settings: 1 h incubation with 1 and 5 μM Cu(II)
# T1 construct: purchased Boston Biochem (Cambridge, MA, USA)
# Experimental: Currently, there are only few molecules known to inhibit the ChT-L, C-L, and T-L proteasome activities to the same extent. In principle, these agents are thought to inactivate the CP by upstream events involving protein damage (e.g. oxidation, disassembling of the enzyme into α and β subunits)[29][30] or, as recently reported, to allosteric effects involving proteasome gating. To address these issues, we performed native gel electrophoresis of purified hCP after 1 h incubation with 1 and 5 μM Cu(II) ions (Fig. 1B). […] Thus, we can exclude that Cu(II)-treated hCP could disassemble in α and β subunits. […] To this aim we i) assayed the presence of Cu(I) species in Cu(II)-loaded hCP samples by UV spectroscopy using bathocuproine disulfonic acid sodium salt (BCS) (see Figure S1 of Supporting Information) and ii) monitored the ROS production using fluorescein as a probe whose fluorescence intensity decreases upon reacting with ROS[32]. […]
# Proteasome-enriched fractions were subjected to non denaturing native gel electrophoresis, as described elsewhere. […] Peptidolytic activity of proteasome-enriched fractions from cell lysates was evaluated after incubating the gels in a Suc-LLVY-AMC substrate dissolved in 50 mM Tris pH 8.0, 5 mM MgCl2, 1 mM DTT, 1 mM ATP, at 37 °C for 15 min. […] Images of the gels were acquired by Chemidoc (Biorad), and fluorescent bands were quantified by using the Image J software.
# [2] = system: T2, 26S/20S proteasome assembly in Hela cells; assay: Non-denaturing gel with in-gel peptidase activity of HeLa lysates (20S/26S ratio); format: cell-based, human; settings: 24 h
# T2 construct: endogenous in cells; host or cells: HeLa cells
# Experimental: Proteasome-enriched fractions were subjected to non denaturing native gel electrophoresis, as described elsewhere. Briefly, 100 μg of fractionated Hela cells lysates, pretreated for 24 h with 0, 20 or 80 μM Cu(II), were run on a 3–12% non-denaturing, gradient polyacrylamide gel (Invitrogen, Carlsbad, CA) according to a protocol reported elsewhere. hCP (2 μM) treated for 2 h with 0 μM, 20 μM and 80 μM of Cu (II) was used as reference control. Peptidolytic activity of proteasome-enriched fractions from cell lysates was evaluated after incubating the gels in a Suc-LLVY-AMC substrate dissolved in 50 mM Tris pH 8.0, 5 mM MgCl2, 1 mM DTT, 1 mM ATP, at 37 °C for 15 min. Proteasome bands were identified by the release of highly fluorescent free AMC which allowed us to identify the proteasome holo and subcomplexes. Images of the gels were acquired by Chemidoc (Biorad), and fluorescent bands were quantified by using the Image J software.
# HeLa cells = system: HeLa cells; parameters: method as in PMID 9057888, PMID 21584299; settings: Cu(II)-supplemented media up to 100 μM; cited from earlier work
# [3] = target: T3, human 20S proteasome (hCP), C-L activity; assay: C-L peptidase activity of isolated hCP (fluorogenic substrate); format: biochemical
# T3 construct: purchased Boston Biochem (Cambridge, MA, USA)
# Text: Purified human 20S proteasome (hCP) and the fluorogenic substrates Suc-LLVY-AMC, Z-Leu-Leu-Glu-AMC, and Ac-Arg-Leu-Arg-AMC used to assay the ChT-L, T-L, and C-L activity, were from Boston Biochem (Cambridge, MA, USA). Bathocuproinedisulfonic acid disodium salt (BCS), dithiothreitol (DTT), N-Acetyl-L-Cysteine (NAC), Sodium dodecylsulphate (SDS) as well as CuCl2 and Zn(NO3)2 were from Sigma-Aldrich (St. Louis, MO). Proteasome inhibitors Epoxomicin were obtained from Enzo Life Science. Wild type 20S proteasome isolated from Saccharomices Cerevisiae (yCP) and a mutant (α3ΔN) where nine residues of the N-terminal tail of the α3 subunit are deleted to provide a permanently open-gate conformations were isolated as described elsewhere.
# Peptidase activities of hCP (2 nM) were assayed on in 50 μL Tris 25 mM pH 7.6, at 37 °C with 100 μM of the fluorogenic substrate. hCP was incubated with Cu(II)/Zn(II) ions for 1 h prior activity assays. The fluorescence signal activated by peptide cleavage was recorded at 440 nm (excitation at 360 nm) for 45 min, by a Varioskan (Thermo^©) plate reader in 384 multiwell plates. Three replicates were performed for each data point. Data were reported as normalized percentages of residual activity. The potency (IC50) was calculated from the value of the dose response plot corresponding at a fractional activity of 50%. The IC50 values were determined using a non linear fit of experimental data in according to equation: […]
# The midpoint of this function occurs at a fractional activity value of 50%, corresponding to half inhibition of the target enzyme. The IC50 values and their standard errors were deduced from the fitting. To evaluate if copper is a reversible PI, we measured the ChT-L activity of hCP incubated with Cu(II) (2.20 μM) before and after addition of an equimolar amount of EDTA.
# 20S proteasome (CP) gate = system: T4, 20S proteasome (CP) gate; assay: Steady-state Trp fluorescence of SDS-activated 20S proteasome (gating); parameters: species or system human; settings: 100 μM Cu(II) added to SDS-activated CP (0.018% SDS), pH 7.6, 37 °C
# T4 construct: purchased Boston Biochem (Cambridge, MA, USA)
# Experimental: In particular, fluorescence spectra of the isolated 20S proteasome may be deconvoluted into two components. The first of these bands is ascribable to Trp13(α6) residues which are located at the entrance of the channel. Therefore, a red-shift of the first component may be associated to a gate opening of the 20S proteasome. Here, we exploited this effect to investigate the role of Cu(II) ions in CP gate closing. […] Next, we recorded the fluorescence spectra obtained immediately (t = 0 min) and after 30 min the addition of 100 μM Cu(II) ions to the SDS-activated CP and deconvoluted the fluorescence spectra into the contributions from each type of tryptophan as described in the experimental section (see Fig. 3 panel A). […]
# Fluorescence emission spectra of purified 20S proteasomes (1.5 μM) in a MOPS buffer 10 mM, 0.018% SDS, pH 7.6 were recorded at 37 °C over time prior to and following addition of Cu(II) (100 μM). […] The final fluorescence spectra represent averages of at least three measurements. […] Fluorescence spectra were recorded on a Horiba Fluoromax-4 spectrofluorimeter from 300 to 400 nm in 1-nm steps, at an excitation wavelength λexc = 295 nm. Deconvolution of fluorescence spectra into the log-normal components was performed according to the algorithms integrated into the web-based toolkit PFAST (http://pfast.phys.edu/)[43]. […]
smiles,measurement,setting,value
"[Cl][Cu][Cl] [Cu(II), CuCl2]",hCP assembly by native gel,[1],only a single band is present at 700 kDa
same,"Intensity of CP, CP-RP and CP-RP2 bands",[2]; 20 μM Cu(II),does not vary with respect to control
same,"Intensity of CP, CP-RP1 and CP-RP2 bands",[2]; 80 μM Cu(II),the amount of CP increases
same,HeLa cell growth,HeLa cells,not inhibited
same,pIC50,"[3]; hCP 2 nM, 1 h preincubation with ions, Tris 25 mM pH 7.6, 37 °C, no SDS, read-out: IC50 C-L",6.00
same,pIC50,"[3]; in the presence of 0.018% SDS, other conditions unmodified, read-out: IC50 C-L, Cu(II) + SDS",5.74
same,Red shift of first Trp fluorescence component (gate opening),20S proteasome (CP) gate,decreased rate of red-shift

# From publication PMC5025780, “Copper(II) ions affect the gating dynamics of the 20S proteasome: a molecular and in cell study” (Scientific Reports, 2016)
